Reference: paper PMC11930985 (Nature Communications, 2025)
Read-outs that look alike come from different tables or passages of the source.

How the values were obtained:
AML patients = conditions: cited from earlier work; for Remissions (CR and CRi), patients: patients not eligible for intensive chemotherapy
AML/MDS patients = tested on: AML/MDS patients
Experimental: Safety assessments including standard clinical laboratory safety tests (hematology, biochemistry, coagulation, and urinalysis), physical examinations, vital signs (blood pressure, heart rate, respiration rate and temperature), and ECOG performance status were performed at baseline and throughout the study. Electrocardiograms were obtained at screening, Cycle 1 Day 1–4, 8, and 15, Cycle 2 Day 1, 8 and 15, at Day 1 of each cycle thereafter, (up to and including Cycle 15), and at Final Study Visit. QT prolongation was assessed using the Fridericia correction […] [34]. Severity of QTcF prolongation was defined as follows: Grade 1: maximum prolongation 450–480 ms; Grade 2: maximum prolongation 481-500 ms; Grade 3: ≥501 ms on at least two separate ECGs; Grade 4: ≥501 ms or >60 ms change from baseline, with Torsades de pointes, polymorphic ventricular tachycardia or signs/symptoms of serious arrythmia; Grade 5: Death.
Adverse events (AEs) were monitored starting at study enrolment until 28 days after end of treatment and graded according to the National Cancer Institute Common Terminology Criteria for Adverse Events (NCI-CTCAE) version 4.0. If drug-related toxicities continued beyond the follow-up period, patients were followed until all drug-related toxicities resolved to grade ≤1, stabilized or returned to baseline.

CYP3A4 = tested on: CYP3A4; parameters: method as in Investigator's Brochure (IB) version 5.0; conditions: preliminary results; ref Investigator's Brochure (IB) version 5.0; cited from earlier work

Nc1ccn([C@@H]2O[C@H](CO)[C@@H](O)[C@@H]2O)c(=O)n1 [Cytarabine, reference compound]
Response rate (AML patients; R/R-AML): < 20%
Remissions (CR and CRi), patients (AML patients): less than 35%
Patients with cytarabine dose-reduced (AML/MDS patients; LDAC cohorts): 4
Patients with cytarabine interrupted (AML/MDS patients; human, in vivo): 8
Patients with cytarabine withdrawn (AML/MDS patients; human, in vivo): 1
Extensive metabolism by CYP3A4 (CYP3A4): does not

Nc1ncn([C@@H]2O[C@H](CO)[C@@H](O)[C@H]2O)c(=O)n1 [azacitidine]
Remissions (CR and CRi), patients (AML patients): less than 35%

Nc1ncn([C@H]2C[C@H](O)[C@@H](CO)O2)c(=O)n1 [decitabine]
Remissions (CR and CRi), patients (AML patients): less than 35%

CC1(C)CCC(CN2CCN(c3ccc(C(=O)NS(=O)(=O)c4ccc(NCC5CCOCC5)c([N+](=O)[O-])c4)c(Oc4cnc5[nH]ccc5c4)c3)CC2)=C(c2ccc(Cl)cc2)C1 [venetoclax]
Response rate (AML patients; HMA or LDAC plus venetoclax, venetoclax-naïve R/R-AML): 31%
Response rates (AML patients; venetoclax added to less-intensive regimens (HMAs or LDAC), frontline): 60–75%
